Results published in PMC10635480, “An engineered thermally tolerant apo-cytochrome scaffold for metal-less incorporation of heme derivative” (PLOS ONE, 2023).

Key:
[1] = molecular target: T1, rC552 C14A (cytochrome c552, apo-form) (Thermus thermophilus, UniProt Q5SME3, C31A); test: time-dependent UV-Vis reconstitution; format: binding; settings: equimolar 5 uM, 25 °C
T1 construct: gene cycA; recombinant, E. coli BL21(DE3), pET-rC552 C14A; no tag mentioned; heme-free apo-form isolated by butyl-Sepharose

[2] = molecular target: T2, rC552 C14A (cytochrome c552, apo-form) (Thermus thermophilus, UniProt Q5SME3, C31A/M86F); format: binding
T2 construct: gene cycA; recombinant, E. coli BL21(DE3), pET-rC552 C14A; no tag mentioned; heme-free apo-form isolated by butyl-Sepharose
T2 sequence (Q5SME3 18-148 C31A/M86F): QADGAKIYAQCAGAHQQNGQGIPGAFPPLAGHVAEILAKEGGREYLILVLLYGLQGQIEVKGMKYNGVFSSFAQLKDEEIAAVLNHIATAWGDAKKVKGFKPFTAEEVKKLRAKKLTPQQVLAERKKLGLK

T1 sequence (Q5SME3 18-148 C31A): as the sequence (Q5SME3 18-148 C31A/M86F) above, with F69M counted along it

Structure (SMILES): C=CC1=C(C)c2cc3[nH]c(cc4nc(cc5[nH]c(cc1n2)c(C)c5CCC(=O)O)C(CCC(=O)O)=C4C)c(C)c3C=C [protoporphyrin IX (metal-free)]
- time-dependent UV-Vis reconstitution [1]: Time-dependent UV–Vis spectra show a rather slow reconstitution process while mixing equal concentrations
- Tm of reconstituted protein (not dTm) [2]: 58 °C
